Assay results as given in PubChem BioAssay AID256 (DTP/NCI, 2004).
Toxic doses and inconclusive results are not listed. Rule for the calls: active = survival T/C of 150% or more; inactive = T/C below 125% in these data.

Tested on: CD2F1 mice, L1210 leukemia ip, survival T/C
Test: NCI In Vivo Anticancer Drug Screen. Data for tumor model L1210 Leukemia (intraperitoneal) in CD2F1 (CDF1) mice
Conditions: endpoint: mean survival time, higher = longer survival
In short: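 Tumor-bearing mice (transplanted tumor) were split into treated and vehicle control groups, and the measured endpoint of each treated group was divided by that of its vehicle controls.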

[1] = dose: 100.0 mg/kg/injection, schedule: Q01DX009 (ip), vehicle: saline with Tween-80
[2] = dose: 100.0 mg/kg/injection, schedule: Q04DX003 (ip), vehicle: saline with Tween-80
[3] = dose: 200.0 mg/kg/injection, schedule: Q01DX009 (ip), vehicle: saline with Tween-80
[4] = dose: 200.0 mg/kg/injection, schedule: Q04DX003 (ip), vehicle: saline with Tween-80
[5] = dose: 400.0 mg/kg/injection, schedule: Q01DX009 (ip), vehicle: saline with Tween-80
[6] = dose: 400.0 mg/kg/injection, schedule: Q04DX003 (ip), vehicle: saline with Tween-80
[7] = dose: 100.0 mg/kg/injection, schedule: Q04DX002 (ip), vehicle: saline with Tween-80
[8] = dose: 200.0 mg/kg/injection, schedule: Q04DX002 (ip), vehicle: saline with Tween-80
[9] = dose: 400.0 mg/kg/injection, schedule: Q04DX002 (ip), vehicle: saline with Tween-80

Measured: T/C

CC(=O)OCC1OC(n2cnc3c(NC(=O)c4ccccc4)ncnc32)C(OC(C)=O)C1OC(C)=O (configuration not stated)
inactive: dose: 12.5 mg/kg/injection, schedule: Q01DX005 (ip), vehicle: distilled water + Tween-80 93 % of control | dose: 25.0 mg/kg/injection, schedule: Q01DX005 (ip), vehicle: distilled water + Tween-80 100 % of control | dose: 50.0 mg/kg/injection, schedule: Q01DX005 (ip), vehicle: distilled water + Tween-80 88 % of control | dose: 100.0 mg/kg/injection, schedule: Q01DX005 (ip), vehicle: distilled water + Tween-80 94 % of control

CCC[CH2][Sn](=[S])[CH2]CCC
inactive: dose: 0.39 mg/kg/injection, schedule: Q01DX009 (ip), vehicle: other 102 % of control | dose: 0.78 mg/kg/injection, schedule: Q01DX009 (ip), vehicle: other 100 % of control | dose: 1.56 mg/kg/injection, schedule: Q01DX009 (ip), vehicle: other 107 % of control | dose: 6.25 mg/kg/injection, schedule: Q04DX003 (ip), vehicle: other 103 % of control | dose: 12.5 mg/kg/injection, schedule: Q04DX003 (ip), vehicle: other 103 % of control

Cc1cc(Cl)ccc1NC(=O)CCl
inactive: [1] 93 % of control | [2] 100 % of control | [3] 88 % of control | [4] 105 % of control | [5] 96 % of control | [6] 92 % of control

Cc1cc(C)c(N(CC(=O)O)S(=O)(=O)c2ccccc2)c(C)c1N(CC(=O)O)S(=O)(=O)c1ccccc1
inactive: dose: 100.0 mg/kg/injection, schedule: Q01DX001 (ip), vehicle: saline with Tween-80 97 % of control | dose: 200.0 mg/kg/injection, schedule: Q01DX001 (ip), vehicle: saline with Tween-80 105 % of control | dose: 400.0 mg/kg/injection, schedule: Q01DX001 (ip), vehicle: saline with Tween-80 103 % of control

O=[N+]([O-])c1cc2nsnc2cc1[N+](=O)[O-]
inactive: [2] 101 % of control | [4] 95 % of control | [6] 96 % of control

F[Si](c1ccccc1)(c1cccc2ccccc12)c1cccc2ccccc12
inactive: [1] 96 % of control | [3] 100 % of control | [5] 95 % of control

C=C(Cl)CNC(N)=S
inactive: [2] 99 % of control | [4] 98 % of control

CN(C)c1ccc(/C=N/NC(=O)NN)cc1
inactive: dose: 12.5 mg/kg/injection, schedule: Q01DX009 (ip), vehicle: saline with Tween-80 98 % of control | dose: 12.5 mg/kg/injection, schedule: Q04DX003 (ip), vehicle: saline with Tween-80 98 % of control | dose: 25.0 mg/kg/injection, schedule: Q01DX009 (ip), vehicle: saline with Tween-80 100 % of control | dose: 25.0 mg/kg/injection, schedule: Q04DX003 (ip), vehicle: saline with Tween-80 98 % of control | dose: 50.0 mg/kg/injection, schedule: Q01DX009 (ip), vehicle: saline with Tween-80 98 % of control | dose: 50.0 mg/kg/injection, schedule: Q04DX003 (ip), vehicle: saline with Tween-80 104 % of control

CC/C(=C(/CC)c1ccc(OP(N)(=O)N(CCCl)CCCl)cc1)c1ccc(OP(N)(=O)N(CCCl)CCCl)cc1 (configuration not stated)
inactive: dose: 90.0 mg/kg/injection, schedule: Q01DX001 (ip), vehicle: DMSO 100 % of control | dose: 133.0 mg/kg/injection, schedule: Q01DX001 (ip), vehicle: DMSO 98 % of control | dose: 200.0 mg/kg/injection, schedule: Q01DX001 (ip), vehicle: DMSO 102 % of control | dose: 300.0 mg/kg/injection, schedule: Q01DX001 (ip), vehicle: DMSO 113 % of control

O=C(O)C1C2CCC(CC2)C1C(=O)O (configuration not stated)
inactive: [7] 93 % of control | [8] 97 % of control | [9] 101 % of control

Cc1cc(Cl)nc(N)n1
inactive: dose: 100.0 mg/kg/injection, schedule: Q04DX002 (ip), vehicle: Klucel (hydroxypropylcellulose) (HPC) 90 % of control | dose: 200.0 mg/kg/injection, schedule: Q04DX002 (ip), vehicle: Klucel (hydroxypropylcellulose) (HPC) 86 % of control

O=C(COc1ccc(Cl)cc1)C1CSc2c(Cl)ccc(Cl)c21 (configuration not stated)
inactive: [2] 92 % of control | [4] 98 % of control | [6] 101 % of control

Cc1ccc(-n2c(=S)[nH]c3ccccc3c2=O)cc1
inactive: [2] 100 % of control

CCC(C)OC(=O)CCl (configuration not stated)
inactive: dose: 75.0 mg/kg/injection, schedule: Q01DX001 (ip), vehicle: other 97 % of control | dose: 150.0 mg/kg/injection, schedule: Q01DX001 (ip), vehicle: other 96 % of control

CCCCCCCCCCCCCCCCCC[n+]1ccc(C(=O)c2ccccc2)cc1
inactive: dose: 9.38 mg/kg/injection, schedule: Q01DX001 (ip), vehicle: other 109 % of control | dose: 18.75 mg/kg/injection, schedule: Q01DX001 (ip), vehicle: other 110 % of control

Cc1cccc(C)c1NC(=O)/C=C/c1ccccc1
inactive: [7] 94 % of control | [8] 90 % of control | [9] 98 % of control
